Activity calls are given as the source filed them. How the calls were made is not given here.
assay: concentration series on yeast TOR reporter LAP4 – cell-based, MLPCN hits, flow cytometry, dose response (AID 2745);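 further: yeast exposed to compound for three hours at 30 degrees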; settings: S. cerevisiae LAP4-GFP reporter, flow cytometry fluorescence; at 33 µM (top of the series)

Row | Structure (SMILES) | LAP4-GFP fluorescence (kMESF)
1 | O=C1C(Cl)=C(Nc2ccccc2O)C(=O)N1c1ccccc1 | 4.81 kMESF (inactive)
2 | O=C(/C=C/c1ccccc1)NC(=S)NNC(=O)Cc1cccs1 | 3.64 kMESF (inactive)
3 | Cc1ccc(N=c2ssnc2Cl)cc1 | 10.6 kMESF (inactive)
4 | O=C(Nc1cccc(C(F)(F)F)c1)Oc1ccc(Cl)c2cccnc12 | 12.8 kMESF (inactive)
5 | CC[C@H](C)/C=C(C)/C=C/C1=CC2=C(Cl)C(=O)[C@@](C)(OC(C)=O)C(=O)C2=CO1 | 0.86 kMESF (inactive)
6 | CN1C(=O)/C(=N\OC(=O)c2cccc3ccccc23)c2ccccc21 | 7.11 kMESF (inactive)
7 | N/C(=N\OC(=O)c1cccc(Br)c1)c1ccccc1 | 4.51 kMESF (inactive)
8 | COc1ccc(OCC(=O)NNC(=S)NC(=O)C2CCCCC2)cc1 | 14.4 kMESF (inactive)
9 | Oc1c(C(Nc2nc3ccccc3s2)c2ccco2)ccc2cccnc12 (configuration not stated) | 24.1 kMESF (inactive)
10 | COc1cc(/C=C2\C(=O)ON=C2c2ccccc2)cc(OC)c1OC | 6.41 kMESF (inactive)
11 | O=C(Nc1ccc(NC(=O)c2cc3ccccc3o2)cc1)c1ccco1 | 3.31 kMESF (inactive)
12 | O=[N+]([O-])c1c(Nc2ccccn2)cc(Cl)c2nonc12 | 36.2 kMESF (inactive)
13 | Cc1ccccc1OCCOC(=O)c1ccc(S(=O)(=O)N2CCCC2)cc1 | 3.13 kMESF (inactive)
14 | CCc1nc2ccccc2c(=O)n1NC(=O)c1c(O)c2cccc3c2n(c1=O)CCC3 | 3.04 kMESF (inactive)
15 | O=C(Sc1cccc2cccnc12)c1ccccc1Br | 18.8 kMESF (inactive)
16 | COc1ccc2c(/C=C/c3cc[n+](C)cc3)c[nH]c2c1 | 3.71 kMESF (inactive)
17 | CC(=O)Oc1ccc(N2C(=O)C3C4C=CC(O4)C3C2=O)cc1 (configuration not stated) | 6.57 kMESF (inactive)
18 | CN(c1ccccc1)c1ccc(/C=c2\s/c(=C(/C#N)C(=O)C(C)(C)C)n(Cc3ccco3)c2=O)cc1 | 10.4 kMESF (inactive)
19 | CCOc1ccc(NC2=C(Cl)C(=O)N(Cc3ccccc3)C2=O)cc1 | 6.11 kMESF (inactive)
20 | CCN(CC(=O)Nc1cc(S(=O)(=O)N2CCOCC2)ccc1Cl)Cc1ccccc1 | 3.97 kMESF (inactive)
21 | CCOc1ccc(N/N=C(/C#N)C(N)=O)cc1 | 9.57 kMESF (inactive)

Row | Structure (SMILES) | LAP4-GFP fluorescence (kMESF)
22 | CC(=O)Oc1cccc(N2C(=O)c3cccc4c([N+](=O)[O-])ccc(c34)C2=O)c1 | 5.16 kMESF (inactive)
23 | Cc1cccc(/C=C/C(=O)c2ccc([N+](=O)[O-])o2)c1 | 9.32 kMESF (inactive)
24 | Cc1ccc(S(=O)(=O)/N=C(\Sc2ccccc2)c2ccccc2)cc1 | 6.11 kMESF (inactive)
25 | Cc1ccc(-c2nn(C(C)(C)C)c3ncnc(N)c23)cc1 | 8.82 kMESF (inactive)
26 | O=S(=O)(c1ccccc1)c1ccc(C(F)(F)F)cn1 | 4.29 kMESF (inactive)
27 | COc1ccc(CCNC2=C(Cl)C(=O)N(CCc3ccccc3)C2=O)cc1OC | 3.31 kMESF (inactive)
28 | CC(=O)Oc1oc(-c2ccccc2)nc1C=Nc1ccccc1 | 8.16 kMESF (inactive)
29 | O=[N+]([O-])c1ccc(S(=O)(=O)c2ccccc2)nc1 | 9.63 kMESF (inactive)
30 | C=CCN1C(=O)/C(=C/c2cccs2)C(=O)NC1=S | 4.47 kMESF (inactive)
31 | CC1=C(C)/C(=N\OS(=O)(=O)c2ccccc2)C=CC1=O | 9.73 kMESF (inactive)
32 | C#CCOCCOCCOCCNc1nc(N2CCN(C(=O)CCCCCCCCCCNC(=O)[C@H](CCCCN)n3cc(C)nn3)CC2)nc(N2CCN(C(=O)CCCCCCCCCCNC(=O)[C@H](CCCN=C(N)N)n3cc(C[C@@H](C)CC)nn3)CC2)n1 | 6.77 kMESF (inactive)
33 | O=C(O)C1Sc2[nH]c(=O)sc2C2c3cc(Br)ccc3OC(=O)C12 (configuration not stated) | 5.82 kMESF (inactive)
34 | Cc1nn2c(NCc3ccccn3)c3c(nc2c1-c1ccccc1)CCC3 | 7.76 kMESF (inactive)
35 | Cc1ccc(C(=O)Oc2oc(-c3ccccc3)nc2C=Nc2ccc(N(C)C)cc2)cc1 | 6.02 kMESF (inactive)
36 | Cc1ccc(/C=C2\SC(=S)N(Cc3ccccc3)C2=O)o1 | 18.1 kMESF (inactive)
37 | Oc1c(CN2CCN(c3ccccc3)CC2)cc(Br)c2cccnc12 | 20.9 kMESF (inactive)
38 | Clc1cnc(N/N=C/c2cccs2)c(Cl)c1 | 6.2 kMESF (inactive)
39 | O=C(CCS(=O)(=O)c1ccccc1)Nc1nc(-c2ccccn2)cs1 | 3.91 kMESF (inactive)
40 | O=C1c2cccc3c([N+](=O)[O-])ccc(c23)C(=O)N1CCc1ccccn1 | 7.15 kMESF (inactive)
41 | Cc1cc(Br)c2c(c1)/C(=C/C(=O)c1cccs1)C(=O)N2 | 6.22 kMESF (inactive)
42 | Cc1cc(=O)oc2cc(Oc3ccc([N+](=O)[O-])cc3C(F)(F)F)ccc12 | 3.64 kMESF (inactive)

Row | Structure (SMILES) | LAP4-GFP fluorescence (kMESF)
43 | Cn1ncc2c(O/N=C(\N)c3ccc(C(C)(C)C)cc3)ncnc21 | 5.61 kMESF (inactive)
44 | Cc1cccc(C(=O)NNC(=S)NC(=O)c2ccccc2)c1 | 9.62 kMESF (inactive)
45 | CCCCc1ccc(NC(=O)CC(C)=O)cc1 | 3.54 kMESF (inactive)
46 | COc1cccc(/C=C2\SC(=S)N(CCCC(=O)Nc3ccc(C(=O)O)cc3)C2=O)c1 | 3.71 kMESF (inactive)
47 | CC(C)(C)C1C/C(=C/c2ccccn2)C(=O)/C(=C/c2ccccn2)C1 (configuration not stated) | 4.25 kMESF (inactive)
48 | Cc1nc2ccc(NC(=O)c3oc4ccc(F)cc4c3C)cc2s1 | 3.28 kMESF (inactive)
49 | O=C1N(c2ccccc2C(F)(F)F)O[C@@]1(c1ccccc1)C1CCCCC1 | 2.73 kMESF (inactive)
50 | Cc1ccccc1OCC(=O)NNC(=S)NC(=O)c1ccco1 | 6.11 kMESF (inactive)
51 | CCCCC(=O)NC(=S)NNC(=O)CCc1ccccc1 | 8.13 kMESF (inactive)
52 | O=[N+]([O-])c1cnc(Sc2ccncn2)s1 | 17.8 kMESF (inactive)
53 | O=C(c1ccccn1)c1conc1C(=O)c1ccc(Br)cc1 | 9.07 kMESF (inactive)
54 | Cc1ccc(N=Nc2ccc(O)c3ncccc23)cc1 | 4.95 kMESF (inactive)
55 | COc1ccc(C(=O)/C=C2/C(=O)Nc3ccccc32)c(OC)c1 | 10.1 kMESF (inactive)
56 | CCC1(c2ccccc2)ON(c2c(Br)cccc2Br)C1=O (configuration not stated) | 7.52 kMESF (inactive)
57 | Cc1cc(O)c(C(=O)/C=C/c2c(F)c(F)c(F)c(F)c2F)c(=O)o1 | 7 kMESF (inactive)
58 | O=C(NCc1ccc2c(c1)OCO2)c1nc(S(=O)(=O)Cc2ccccc2)ncc1Cl | 4.7 kMESF (inactive)
59 | O=C(OCC(=O)N1CCN(C(=O)c2ccco2)CC1)c1cc(-c2ccc(Cl)c(Cl)c2Cl)nc2ccccc12 | 4.61 kMESF (inactive)
60 | O=c1oc(/C=C/c2ccc([N+](=O)[O-])s2)nc2ccccc12 | 12.6 kMESF (inactive)
61 | Cc1[nH][nH]c(=O)c1C(c1ccc(-c2ccc(Cl)cc2)o1)c1c(C)[nH][nH]c1=O | 6.67 kMESF (inactive)
62 | O=C(Nc1nnc(-c2ccc(F)cc2)o1)c1cccc([N+](=O)[O-])c1 | 6.91 kMESF (inactive)

— PubChem BioAssay AID2745 (NMMLSC, 2010)
